Data reported in ChEMBL document CHEMBL4257490, “Development of a peptide-based bifunctional chelator conjugated to a cytotoxic drug for the treatment of melanotic melanoma” (Medchemcomm, 2018).
Calls of active or inactive are those of the source. The rule behind the calls is not given here. Residues, ends and D or L forms follow the SMILES beside them. *: point of attachment. X1 = O=c1nc(N*)ccn1[C@@H]1O[C@H](CO)[C@@H](O)C1(F)F

Columns and labels:
[1] = Drug uptake in tumor of Balb/c mouse allografted with mouse B16F10 cells using 99mTc(CO)3-labeled compound at 4 to 8 MBq, iv measured at 4 hrs by scintigraphic imaging method; format: ADME, organism-based, Neoplasm; details: in vivo
[2] = Metabolic stability in rat serum assessed as parent compound remaining using 99mTc(CO)3-labeled compound after 24 hrs by TLC method; format: ADME, cell-free; details: read-out: Stability
[3] = Drug uptake in kidney of Balb/c mouse allografted with mouse B16F10 cells using 99mTc(CO)3-labeled compound at 10 to 12 MBq/kg, iv measured at 2 hrs; format: ADME, organism-based; details: in vivo
[4] = Drug uptake in mouse B16F10 cells using 99mTc(CO)3-labeled compound at 15 to 20 MBq/ml after 240 mins by gamma scintillation counting method relative to total added activity; format: ADME, cell-based; details: b16-f10, 4 h
[5] = Drug uptake in lung of Balb/c mouse allografted with mouse B16F10 cells using 99mTc(CO)3-labeled compound at 10 to 12 MBq/kg, iv measured at 4 hrs; format: ADME, organism-based; details: in vivo
[6] = Drug uptake in mouse B16F10 cells using 99mTc(CO)3-labeled compound at 15 to 20 MBq/ml after 240 mins by gamma scintillation counting method; format: ADME, cell-based; details: b16-f10, 4 h
[7] = Drug uptake in mouse B16F10 cells using 5,6-carboxyfluorescein-labeled compound at 20 ug/ml after 4 hrs by DAPI staining-based fluorescence microscopic method; format: ADME, cell-based; details: b16-f10, 4 h
[8] = Drug uptake in muscle of Balb/c mouse allografted with mouse B16F10 cells using 99mTc(CO)3-labeled compound at 10 to 12 MBq/kg, iv measured at 2 hrs; format: ADME, organism-based, Muscle tissue; details: in vivo
[9] = Ratio of drug level in tumor to muscle of Balb/c mouse allografted with mouse B16F10 cells using 99mTc(CO)3-labeled compound at 10 to 12 MBq/kg, iv measured at 2 hrs; format: ADME, organism-based, Tumor/tissue; details: in vivo
[10] = Drug uptake in mouse B16F10 cells using 99mTc(CO)3-labeled compound at 15 to 20 MBq/ml after 30 mins by gamma scintillation counting method; format: ADME, cell-based; details: b16-f10, 0.5 h
[11] = Drug uptake in blood of Balb/c mouse allografted with mouse B16F10 cells using 99mTc(CO)3-labeled compound at 10 to 12 MBq/kg, iv measured at 2 hrs; format: ADME, organism-based; details: in vivo
[12] = Drug uptake in tumor muscle of Balb/c mouse allografted with mouse B16F10 cells using 99mTc(CO)3-labeled compound at 10 to 12 MBq/kg, iv measured at 4 hrs; format: ADME, organism-based; details: in vivo
[13] = Drug uptake in gastrointestinal tract of Balb/c mouse allografted with mouse B16F10 cells using 99mTc(CO)3-labeled compound at 4 to 8 MBq, iv measured at 4 hrs by scintigraphic imaging method; format: ADME, organism-based; details: in vivo
[14] = Drug uptake in tumor muscle of Balb/c mouse allografted with mouse B16F10 cells using 99mTc(CO)3-labeled compound at 10 to 12 MBq/kg, iv measured at 2 hrs; format: ADME, organism-based; details: in vivo
[15] = Ratio of drug level in tumor to muscle of Balb/c mouse allografted with mouse B16F10 cells using 99mTc(CO)3-labeled compound at 10 to 12 MBq/kg, iv measured at 4 hrs; format: ADME, organism-based, Tumor/tissue; details: in vivo
[16] = Drug uptake in lung of Balb/c mouse allografted with mouse B16F10 cells using 99mTc(CO)3-labeled compound at 10 to 12 MBq/kg, iv measured at 2 hrs; format: ADME, organism-based; details: in vivo
[17] = Drug uptake in blood of Balb/c mouse allografted with mouse B16F10 cells using 99mTc(CO)3-labeled compound at 10 to 12 MBq/kg, iv measured at 4 hrs; format: ADME, organism-based; details: in vivo
[18] = Ratio of drug level in tumor to blood of Balb/c mouse allografted with mouse B16F10 cells using 99mTc(CO)3-labeled compound at 10 to 12 MBq/kg, iv measured at 4 hrs; format: ADME, organism-based, Tumor/tissue
[19] = Drug uptake in heart of Balb/c mouse allografted with mouse B16F10 cells using 99mTc(CO)3-labeled compound at 10 to 12 MBq/kg, iv measured at 4 hrs; format: ADME, organism-based; details: in vivo
[20] = Drug uptake in liver of Balb/c mouse allografted with mouse B16F10 cells using 99mTc(CO)3-labeled compound at 10 to 12 MBq/kg, iv measured at 2 hrs; format: ADME, organism-based; details: in vivo
[21] = Drug uptake in intestine of Balb/c mouse allografted with mouse B16F10 cells using 99mTc(CO)3-labeled compound at 10 to 12 MBq/kg, iv measured at 4 hrs; format: ADME, organism-based; details: in vivo
[22] = Drug uptake in heart of Balb/c mouse allografted with mouse B16F10 cells using 99mTc(CO)3-labeled compound at 10 to 12 MBq/kg, iv measured at 2 hrs; format: ADME, organism-based; details: in vivo
B16-F10 [23] = experiment: Cytotoxicity against mouse B16F10 cells assessed as decrease in cell viability after 72 hrs by MTT assay; format: functional, cell-based; details: B16-F10, 72 h
[24] = Drug uptake in mouse B16F10 cells using 99mTc(CO)3-labeled compound at 15 to 20 MBq/ml after 30 mins by gamma scintillation counting method relative to total added activity; format: ADME, cell-based; details: b16-f10, 0.5 h
[25] = n-Octanol-phosphate buffer partition co-efficient, log P of 99mTc(CO)3-labeled compound at 2 to 3 KBq after 1 min by gamma scintillation counting method; format: physicochemical
[26] = Drug degradation in histidine solution using 99mTc(CO)3-labeled compound after 24 hrs by TLC method; format: physicochemical; details: read-out: Drug degradation
[27] = Stability in saline assessed as parent compond remaining using 99mTc(CO)3-labeled compound after 24 hrs by TLC method; format: physicochemical; details: read-out: Stability
[28] = Drug uptake in urinary bladder of Balb/c mouse allografted with mouse B16F10 cells using 99mTc(CO)3-labeled compound at 4 to 8 MBq, iv measured at 4 hrs by scintigraphic imaging method; format: ADME, organism-based; details: in vivo
[29] = Hemolytic activity in rat erythrocytes at 100 uM after 1 hr relative to control; format: ADME, cell-based, Erythrocyte; details: read-out: Activity
[30] = Hemolytic activity in rat erythrocytes up to 50 uM after 1 hr relative to control; format: ADME, cell-based, Erythrocyte; details: read-out: Activity
[31] = Drug uptake in liver of Balb/c mouse allografted with mouse B16F10 cells using 99mTc(CO)3-labeled compound at 10 to 12 MBq/kg, iv measured at 4 hrs; format: ADME, organism-based; details: in vivo
B16-F10 [32] = experiment: Ratio of drug uptake in mouse B16F10 cells at 20 ug/ml after 4 hrs by flow cytometric method to drug uptake in mouse B16F10 cells at 20 ug/ml after 30 mins by flow cytometric method; format: ADME, cell-based
[33] = Drug uptake in muscle of Balb/c mouse allografted with mouse B16F10 cells using 99mTc(CO)3-labeled compound at 10 to 12 MBq/kg, iv measured at 4 hrs; format: ADME, organism-based, Muscle tissue; details: in vivo
[34] = Ratio of drug level in tumor to blood of Balb/c mouse allografted with mouse B16F10 cells using 99mTc(CO)3-labeled compound at 10 to 12 MBq/kg, iv measured at 2 hrs; format: ADME, organism-based, Tumor/tissue
[35] = Drug uptake in intestine of Balb/c mouse allografted with mouse B16F10 cells using 99mTc(CO)3-labeled compound at 10 to 12 MBq/kg, iv measured at 2 hrs; format: ADME, organism-based; details: in vivo
[36] = Drug uptake in kidney of Balb/c mouse allografted with mouse B16F10 cells using 99mTc(CO)3-labeled compound at 10 to 12 MBq/kg, iv measured at 4 hrs; format: ADME, organism-based; details: in vivo
[37] = Drug uptake in liver of Balb/c mouse allografted with mouse B16F10 cells using 99mTc(CO)3-labeled compound at 4 to 8 MBq, iv measured at 4 hrs by scintigraphic imaging method; format: ADME, organism-based; details: in vivo
[38] = Drug uptake in kidney of Balb/c mouse allografted with mouse B16F10 cells using 99mTc(CO)3-labeled compound at 4 to 8 MBq, iv measured at 4 hrs by scintigraphic imaging method; format: ADME, organism-based; details: in vivo
[39] = Drug uptake in spleen of Balb/c mouse allografted with mouse B16F10 cells using 99mTc(CO)3-labeled compound at 10 to 12 MBq/kg, iv measured at 2 hrs; format: ADME, organism-based; details: in vivo
[40] = Drug uptake in urine of Balb/c mouse allografted with mouse B16F10 cells using 99mTc(CO)3-labeled compound at 10 to 12 MBq/kg, iv measured at 4 hrs; format: ADME, organism-based; details: in vivo
[41] = Drug uptake in stomach of Balb/c mouse allografted with mouse B16F10 cells using 99mTc(CO)3-labeled compound at 10 to 12 MBq/kg, iv measured at 4 hrs; format: ADME, organism-based; details: in vivo
[42] = Drug uptake in spleen of Balb/c mouse allografted with mouse B16F10 cells using 99mTc(CO)3-labeled compound at 10 to 12 MBq/kg, iv measured at 4 hrs; format: ADME, organism-based; details: in vivo
[43] = Drug uptake in stomach of Balb/c mouse allografted with mouse B16F10 cells using 99mTc(CO)3-labeled compound at 10 to 12 MBq/kg, iv measured at 2 hrs; format: ADME, organism-based; details: in vivo
[44] = Drug uptake in urine of Balb/c mouse allografted with mouse B16F10 cells using 99mTc(CO)3-labeled compound at 10 to 12 MBq/kg, iv measured at 2 hrs; format: ADME, organism-based; details: in vivo
B16-F10 [45] = experiment: Induction of apoptosis in mouse B16F10 cells assessed as nuclear fragmentation at IC50 after 72 hrs by DAPI staining-based fluorescence microscopic method; format: functional, cell-based
B16-F10 [46] = experiment: Antitumor activity against mouse B16F10 cells allografted in Balb/c mouse assessed as tumor growth inhibition at 25 mg/kg, iv administered thrice weekly for 21 days starting on day 10 post tumor implantation relative to control; format: functional; details: read-out: TGI
B16-F10 [47] = experiment: Induction of apoptosis in mouse B16F10 cells at IC50 after 72 hrs by annexin V-FITC/propidium iodide staining-based flow cytometric method relative to control; format: functional
B16-F10 [48] = experiment: Induction of apoptosis in mouse B16F10 cells assessed as necrotic cells at IC50 after 72 hrs by annexin V-FITC/propidium iodide staining-based flow cytometric method relative to control; format: functional
Mus musculus = experiment: Toxicity in mouse B16F10 cells allografted Balb/c mouse assessed as effect on body weight at 25 mg/kg, iv administered thrice weekly for 21 days starting on day 10 post tumor implantation (reference value: 30.52 +/- 2.9 g); format: organism-based; details: in vivo, 504 h

With `N=C(N)NCCC[C@H](NC(=O)[C@@H](N)Cc1cnc[nH]1)C(=O)NCC(=O)N[C@@H](CC(=O)Nc1ccn([C@@H]2O[C@H](CO)[C@@H](O)C2(F)F)c(=O)n1)C(N)=O` (H-HRGD(X1)-NH2) the Drug uptake [1] was “Not Active”, the remaining at 24 h [2] was at least 92% and the Drug uptake [3] was 4.44 % ID/g. For the same compound, the Drug uptake [4] was 4.99%, the Drug uptake [5] was 0.2 % ID/g and the Drug uptake [6] was 65%. For the same compound, the Drug uptake [7] was “Active”, the Drug uptake [8] was 0.17 % ID/g and the Ratio [9] was 4.66. It also gave a Drug uptake [10] of 30.45%, a Drug uptake [11] of 1.13 %ID/ml and a Drug uptake [12] of 0.83 % ID/g. For the same compound, the Drug uptake [13] was “Active”, the Drug uptake [14] was 0.82 % ID/g and the Ratio [15] was 4.89. It also gave a Drug uptake [16] of 0.32 % ID/g, a Drug uptake [17] of 0.88 %ID/ml and a Kp at 4 h [18] of 0.94. It also gave a Drug uptake [19] of 0.05 % ID/g, a Drug uptake [20] of 16.89 % ID/g and a Drug uptake [21] of 9.06 % ID/g. The Drug uptake [22] was 0.07 % ID/g, the IC50 (B16-F10 [23]) was 210 nM and the Drug uptake [24] was 2.9%. The logP at 1 min [25] was -1.77, the degraded at 24 h [26] was 5% and the remaining at 24 h [27] was at least 92%. For the same compound, the Drug uptake [28] was “Active”, the hemolysis at 1 h, 100 µM [29] was 7 to 9% and the hemolysis at 1 h [30] was 5 to 6%. For the same compound, the Drug uptake [31] was 14.39 % ID/g, the Ratio (B16-F10 [32]) was 1.8 and the Drug uptake [33] was 0.17 % ID/g. It also gave a Kp at 2 h [34] of 0.72, a Drug uptake [35] of 7.9 % ID/g and a Drug uptake [36] of 3.24 % ID/g. The Drug uptake [37] was “Active”, the Drug uptake [38] was “Active” and the Drug uptake [39] was 0.44 % ID/g. It also gave a Drug uptake [40] of 56.11 %ID/ml, a Drug uptake [41] of 0.26 % ID/g and a Drug uptake [42] of 0.26 % ID/g. The Drug uptake [43] was 0.36 % ID/g and the Drug uptake [44] was 53.11 %ID/ml.
With `Nc1ccn([C@@H]2O[C@H](CO)[C@@H](O)C2(F)F)c(=O)n1` [GEMCITABINE] the Activity (B16-F10 [45]) was “Active”, the inhibition in vivo at 25 mg/kg (B16-F10 [46]) was 37% and the Activity (B16-F10 [47]) was 26%. For the same compound, the IC50 (B16-F10 [23]) was 260 nM, the Activity (B16-F10 [48]) was 12 - 14% and the Activity (Mus musculus) was 28.65 g.
